For one test, the target named is T1, StGSH1 (dimer) (Solanum tuberosum, UniProt M1AWB9).
T1 construct: gene LOC102600891; pET32a, E. coli BL21(DE3); His tag removed by TEV; homodimer separated on Mono Q
T1 sequence (M1AWB9 74-523): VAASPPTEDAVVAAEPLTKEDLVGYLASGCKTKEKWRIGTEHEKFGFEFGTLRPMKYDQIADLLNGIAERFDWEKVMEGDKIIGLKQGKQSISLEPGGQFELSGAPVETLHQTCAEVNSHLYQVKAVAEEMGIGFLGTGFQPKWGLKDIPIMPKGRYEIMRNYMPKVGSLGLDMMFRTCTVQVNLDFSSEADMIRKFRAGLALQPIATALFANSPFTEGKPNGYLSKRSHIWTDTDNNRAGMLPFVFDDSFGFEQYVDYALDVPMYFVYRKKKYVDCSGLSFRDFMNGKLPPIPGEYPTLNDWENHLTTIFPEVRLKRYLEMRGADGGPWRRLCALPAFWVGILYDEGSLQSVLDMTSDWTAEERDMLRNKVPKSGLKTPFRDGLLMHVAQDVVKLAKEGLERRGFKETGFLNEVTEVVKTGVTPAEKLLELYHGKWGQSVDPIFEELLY
Nature of the test: coupled pyruvate kinase/lactate dehydrogenase assay of ADP formation, A340. It is filed as biochemical. The settings on record: standard reaction: pH 8.0, 100 mM Tris, 150 mM KCl, 20 mM MgCl2, 10 mM L-cysteine, 20 mM L-glutamate; homo-dimer; read-out: ATP. The text has this: coupled pyruvate kinase/lactate dehydrogenase assay of ADP formation, A340 on StGSH1 (dimer)

In another test the target is T2, StGSH1 (monomer) (Solanum tuberosum, UniProt M1AWB9).
T2 construct: gene LOC102600891; pET32a, E. coli BL21(DE3); His tag removed by TEV; monomer separated on Mono Q
T2 sequence (M1AWB9 74-523): T1 sequence (M1AWB9 74-523)
The description is as above. The following applies: standard reaction: pH 8.0, 100 mM Tris, 150 mM KCl, 20 mM MgCl2, 10 mM L-cysteine, 20 mM L-glutamate, read-out: ATP. It is filed as biochemical. The text has this:
coupled pyruvate kinase/lactate dehydrogenase assay of ADP formation, A340 on StGSH1 (monomer)

Molecules are shown by their SMILES.

As to `Nc1ncnc2c1ncn2[C@@H]1O[C@H](COP(=O)(O)OP(=O)(O)OP(=O)(O)O)[C@@H](O)[C@H]1O` [ATP], the Km at StGSH1 (dimer) is 1000 ± 300 µM; on StGSH1 (monomer), 2410 ± 360 µM.

The record behind these values is publication PMC12884754, “A GLUTAMATE CYSTEINE LIGASE Gene StGSH1 Regulated by StERF10 Enhanced Glutathione Accumulation and Adaptation to Low Phosphorus Stress in Potato” (Advanced Science, 2025).
